Measurements published in patent US12465617B2, “Methods and systems for inhibiting foreign-body responses in diabetic patients” (Medtronic MiniMed, Inc., priority 2013, dated 2025).
“Also recorded” adds a separate entry of the source.

Assays:
diabetic porcine model = experiment: Site-loss evaluation of insulin infusion sets in diabetic porcine model (blood glucose >350 mg/dl not corrected by insulin); format: in vivo, pig; conditions: for site-loss performance versus the control: agent formulated with insulin (Humalog)
Protocol: The objectives of this study include duplicating the site-loss phenomena observed in previous studies using a diabetic porcine model. Additionally, various infusion set configurations are evaluated for reducing site-loss and extending infusion set wear. Further, site-loss is mitigated using a response-inhibiting agent and/or infusion pump to increase reliability of wear for 3 days and extend infusion set wear beyond 3 days.
The objectives of this study include: duplicating the site-loss phenomena observed in previous studies using the diabetic porcine model; using the established diabetic porcine model to evaluate the effects of various infusion set designs on infusion site-loss; and testing if site-loss can be mitigated by direct pump infusing of immunosuppressant/anti-inflammatory drugs, and/or by modifying infusion set by drug coating.
This study is designed so that each set (inserted under anesthesia) is to be worn for 1 week unless there was set failure/dislodge. Glucose is monitored by a blood glucose meter and Enlite™ sensor. The criteria for determining site loss is that blood glucose is greater than 350 mg/dl and fails to decrease following an insulin dose correction. During biopsy pumps are removed but the cannula is maintained in-situ. Site skin is examined for edema/erythema (swell/redness) (see FIG. 8).

[1] = Assay of rapamycin/Humalog solution after use; format: physicochemical; conditions: 20 μg/mL solution assayed after use
[2] = system: normal and diabetic Yucatan pigs; experiment: PK/PD study: blood glucose response to Humalog; format: in vivo, Yucatan pig
Text: Factors influencing insulin pK/pD properties include inflammation, infection, immune response, wound healing cascade, age of patients, type of insulin used, site of insertion, layer of scar tissue where the catheter tip resides, and several others. 6 Yucatan pigs were used in this study: 2 normal and 4 diabetic pigs, as shown in […]

diabetic pig = experiment: Histopathology of infusion sites (inflammation at catheter tip and body); format: in vivo; conditions: listed as Humalog™
Text: FIG. 2A is a series of histologic evaluations at the catheter tip showing the inflammatory response (score), and size of the area with tissue reaction. “*” indicates the catheter location and “F” indicates normal fat. […] FIG. 2B is a series of graphs illustrating the inflammation at the catheter tip for diabetic and non-diabetic pigs. Localized inflammation loosely correlated with site-loss.
FIG. 2C is a series of graphs illustrating the predominate inflammation cells at the catheter tip and catheter body (qualitative). To isolate the main inflammation contributors, a catheter, a catheter infused with insulin (Humalog™), and a catheter infused with placebo were placed on a diabetic pig at the same time.
FIG. 2D is a series of graphs illustrating the predominate inflammation cells at the catheter tip and catheter body of an insulin injection port (i-Port™). To isolate the main inflammation contributors, a catheter, a catheter infused with insulin, and a catheter infused with placebo were placed on a diabetic pig. Compared to continuous infusion, the giant cells are missing in the i-Port™ study. […] As observed by the pathologist, the pigs may have developed a hypersensitivity to the Humalog™ and such a reaction would contribute to the inflammation seen (the degree that hypersensitivity is influencing the inflammation is unclear but it could be one of the main drivers).

**Q.** For `C[C@H]1C[C@H]2[C@@H]3CCC4=CC(=O)C=C[C@]4(C)[C@@]3(F)[C@@H](O)C[C@]2(C)[C@@]1(O)C(=O)COP(=O)([O-])[O-].[Na+].[Na+]` [BSP, betamethasone sodium phosphate], which “site-loss performance versus the control” value (diabetic porcine model) is on record?
**A.** significantly worse than the control

**Q.** Which “site-loss performance versus the control” value (diabetic porcine model) does the source give for `C[C@@H]1C[C@H]2[C@@H]3CCC4=CC(=O)C=C[C@]4(C)[C@@]3(F)[C@@H](O)C[C@]2(C)[C@@]1(O)C(=O)COP(=O)(O)O` [DXP, Dexamethasone Phosphate] here?
**A.** significantly worse than the control

**Q.** Which “recovery of infusion site after” value (diabetic porcine model; dosed with Humalog) does the source give for `CO[C@H]1C[C@@H]2CC[C@@H](C)[C@@](O)(O2)C(=O)C(=O)N2CCCC[C@H]2C(=O)O[C@H]([C@H](C)C[C@@H]2CC[C@@H](O)[C@H](OC)C2)CC(=O)[C@H](C)/C=C(\C)[C@@H](O)[C@@H](OC)C(=O)[C@H](C)C[C@H](C)/C=C/C=C/C=C/1C` [Rapamycin] here?
**A.** around 6 days

**Q.** What about the “duration of wear before site-loss” value (diabetic porcine model; formulation of insulin (Humalog) with agent, Sof-Set) of the same compound?
**A.** 5 days

**Q.** And the “stability of rapamycin in U100 Humalog solution” value [1]?
**A.** *Rapamycin was later found to be degraded by assaying solution after use.

**Q.** With Dextran Sulfate Sodium Salt as the compound, how does the “site-loss performance versus the control” value (diabetic porcine model) read?
**A.** significantly better than the control

**Q.** For Insulin lispro, which “blood glucose level lowering” value [2] is on record?
**A.** effectively lower blood glucose level

**Q.** What about the “order of evaluated inflammation scores” value (diabetic pig; catheter, catheter infused with insulin, catheter infused with placebo on a diabetic pig) of the same compound?
**A.** insulin≥placebo≥catheter; also recorded: insulin≥placebo≥cannula

**Q.** And the “localized inflammation / tissue fibrosis” value (diabetic pig; compared to catheter and placebo)?
**A.** associated with increased localized inflammation; also recorded: main contributor to localized tissue fibrosis

**Q.** With heparin sodium as the compound, how does the “no site-loss occurred in” value (diabetic porcine model; U100 Humalog with heparin sodium 3.55 mg/mL (685 U/mL), continuous infusion, pigs IM3 and IM4, control IM1 site-loss in 2 days) read?
**A.** > 6 days

**Q.** And the “site-loss performance versus the control” value (diabetic porcine model)?
**A.** significantly better than the control
